Source: patent publication US10323022B2, “Pyrrolidinyl urea, pyrrolidinyl thiourea and pyrrolidinyl guanidine compounds as TrkA kinase inhibitors” (Array BioPharma Inc., priority 2011, dated 2019)

Target: TrkA (Homo sapiens (Human), UniProt P04629)
Experiment: TrkA Omnia Assay
Assay type: biochemical
Settings: averaged IC50; 20 nM enzyme, 500 μM ATP, 10 μM peptide substrate
Procedure, shortened: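 Continuous fluorescent kinase read-out (ex 360 nm, em 485 nm) over 70 min, with initial rates fitted to 4- or 5-parameter logistic curves for IC50. Final conditions: 500 μM ATP, 10 μM Omnia Tyr Peptide #4, 20 nM TrkA, MOPS pH 7.5 buffer with MgCl2 and Triton X-100; enzyme and compound preincubated 10 min at ambient temperature.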

Chain of TrkA (P04629 33-796): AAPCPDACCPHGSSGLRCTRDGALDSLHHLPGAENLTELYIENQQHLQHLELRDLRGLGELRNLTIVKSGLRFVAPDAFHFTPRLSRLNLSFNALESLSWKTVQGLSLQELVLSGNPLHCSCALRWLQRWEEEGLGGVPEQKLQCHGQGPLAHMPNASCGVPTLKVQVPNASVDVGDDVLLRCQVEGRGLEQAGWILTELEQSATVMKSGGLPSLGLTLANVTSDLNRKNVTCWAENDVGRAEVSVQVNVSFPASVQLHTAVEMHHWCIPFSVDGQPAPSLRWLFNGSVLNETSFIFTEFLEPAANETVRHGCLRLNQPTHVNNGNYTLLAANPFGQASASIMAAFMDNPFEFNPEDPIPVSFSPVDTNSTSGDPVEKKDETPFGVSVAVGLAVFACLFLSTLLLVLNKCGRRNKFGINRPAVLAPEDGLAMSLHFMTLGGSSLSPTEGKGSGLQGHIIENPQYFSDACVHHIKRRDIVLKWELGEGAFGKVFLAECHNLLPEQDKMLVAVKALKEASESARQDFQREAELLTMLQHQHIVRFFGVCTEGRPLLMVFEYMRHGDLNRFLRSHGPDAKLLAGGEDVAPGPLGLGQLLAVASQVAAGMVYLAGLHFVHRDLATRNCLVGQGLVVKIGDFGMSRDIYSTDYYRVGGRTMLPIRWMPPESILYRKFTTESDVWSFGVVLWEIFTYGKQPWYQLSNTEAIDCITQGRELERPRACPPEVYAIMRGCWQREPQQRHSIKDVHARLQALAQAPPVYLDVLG

IC50	SMILES
< 100 nM	COCCN1C[C@@H](NC(=O)Nc2c(Cl)c(C(F)(F)CO)nn2-c2ccccc2)[C@H](c2ccc(F)cc2)C1 [Example 411, 1-(4-chloro-3-(1,1-difluoro-2-hydroxyethyl)-1-phenyl-1H-pyrazol-5-yl)-3-((3S,4R)-4-(4-fluorophenyl)-1-(2-methoxyethyl)pyrrolidin-3-yl)urea]
< 100 nM	COCCN1C[C@@H](NC(=O)Nc2c(Cl)c(CCO)nn2-c2ccccc2)[C@H](c2ccc(F)c(F)c2)C1 [Example 449, 1-(4-chloro-3-(2-hydroxyethyl)-1-phenyl-1H-pyrazol-5-yl)-3-((3S,4R)-4-(3,4-difluorophenyl)-1-(2-methoxyethyl)pyrrolidin-3-yl)urea]
< 100 nM	COCCN1C[C@@H](NC(=S)Nc2c(C)c(-c3cnn(C)c3)nn2-c2ccccc2)[C@H](c2ccc(F)c(F)c2)C1 [Example 632, 1-((3S,4R)-4-(3,4-difluorophenyl)-1-(2-methoxyethyl)pyrrolidin-3-yl)-3-(1′,4-dimethyl-1-phenyl-1H,1′H-3,4′-bipyrazol-5-yl)thiourea]
< 100 nM	COCCN1C[C@@H](NC(=O)Nc2c(C)c(-c3cncnc3)nn2-c2ccccc2)[C@H](c2ccc(F)c(F)c2)C1 [Example 504, 1-((3S,4R)-4-(3,4-difluorophenyl)-1-(2-methoxyethyl)pyrrolidin-3-yl)-3-(4-methyl-1-phenyl-3-(pyrimidin-5-yl)-1H-pyrazol-5-yl)urea]
< 100 nM	COCCN1C[C@@H](NC(=O)Nc2c(Cl)c(-c3cnn(CCOC)c3)nn2-c2ccccc2)[C@H](c2ccc(F)c(F)c2)C1 [Example 556, 1-(4-chloro-1′-(2-methoxyethyl)-1-phenyl-1H, 1′H-[3,4′-bipyrazol]-5-yl)-3-((3S,4R)-4-(3,4-difluorophenyl)-1-(2-methoxyethyl)pyrrolidin-3-yl)urea]
< 100 nM	CCn1nc(C)c(NC(=O)N[C@@H]2CN(CCOC)C[C@H]2c2ccc(F)c(F)c2)c1-c1ccccc1 [Example 645, 1-((3S,4R)-4-(3,4-difluorophenyl)-1-(2-methoxyethyl)pyrrolidin-3-yl)-3-(1-ethyl-3-methyl-5-phenyl-1H-pyrazol-4-yl)urea]
< 100 nM	COCCN1C[C@@H](NC(=O)Nc2c(C)c(=O)[nH]n2-c2ccccc2)[C@H](c2cc(F)cc(F)c2)C1 [Example 611, 1-((3S,4R)-4-(3,5-difluorophenyl)-1-(2-methoxyethyl)pyrrolidin-3-yl)-3-(4-methyl-5-oxo-2-phenyl-2,5-dihydro-1H-pyrazol-3-yl)urea]
< 100 nM	COCCN1C[C@@H](NC(=O)Nc2c(Cl)c(COC)nn2-c2ccccc2)[C@H](c2ccc(F)c(F)c2)C1 [Example 403, 1-(4-chloro-3-(methoxymethyl)-1-phenyl-1H-pyrazol-5-yl)-3-((3S,4R)-4-(3,4-difluorophenyl)-1-(2-methoxyethyl)pyrrolidin-3-yl)urea]
< 100 nM	COCCN1C[C@@H](NC(=O)Nc2c(C)c(OC[C@@H](O)CO)nn2-c2ccccc2)[C@H](c2cc(F)cc(F)c2)C1 [Example 557, 1-((3S,4R)-4-(3,5-difluorophenyl)-1-(2-methoxyethyl)pyrrolidin-3-yl)-3-(3-((S)-2,3-dihydroxvpropoxy)-4-methyl-1-phenyl-1H-pyrazol-5-yl)urea]
100 to 1000 nM	CCOc1nn(-c2ccccc2)c(NC(=O)N[C@@H]2CN(CCC#N)C[C@H]2c2ccc(F)c(F)c2)c1C [Example 471, 1-((3S,4R)-1-(2-cyanoethyl)-4-(3,4-difluorophenyl)pyrrolidin-3-yl)-3-(3-ethoxy-4-methyl-1-phenyl-1H-pyrazol-5-yl)urea]
< 100 nM	COCCN1C[C@@H](NC(=O)Nc2c(C)c(OC[C@H](O)CO)nn2-c2ccccc2)[C@H](c2cc(F)c(F)c(F)c2)C1 [Example 559, 1-(3-((R)-2,3-dihydroxvpropoxy)-4-methyl-1-phenyl-1H-pyrazol-5-yl)-3-((3S,4R)-1-(2-methoxyethyl)-4-(3,4,5-trifluorophenyl)pyrrolidin-3-yl)urea]
< 100 nM	COCCN1C[C@@H](NC(=O)Nc2c(C)c(OC[C@H](C)O)nn2-c2ccccc2)[C@H](c2ccc(F)cc2)C1 [Example 368, 1-((3S,4R)-4-(4-fluorophenyl)-1-(2-methoxyethyl)pyrrolidin-3-yl)-3-(3-((S)-2-hydroxypropoxy)-4-methyl-1-phenyl-1H-pyrazol-5-yl)urea]
< 100 nM	COCCN1C[C@@H](NC(=O)Nc2c3ccccc3nn2-c2ccccc2)[C@H](c2ccccc2)C1 [Example 389]
< 100 nM	COCCN1C[C@@H](NC(=O)Nc2c(Cl)c(-c3ccccc3)nn2-c2ccccc2)[C@H](c2cc(F)cc(F)c2)C1 [Example 426, 1-(4-chloro-1,3-diphenyl-1H-pyrazol-5-yl)-3-((3S,4R)-4-(3,5-difluorophenyl)-1-(2-methoxyethyl)pyrrolidin-3-yl)urea]
100 to 1000 nM	COCCN1C[C@@H](NC(=O)Nc2c3c(nn2-c2ccnnc2)CCC3)[C@H](c2ccc(F)c(F)c2)C1 [Example 395, 1-((3S,4R)-4-(3,4-difluorophenyl)-1-(2-methoxyethyl)pyrrolidin-3-yl)-3-(2-(pyridazin-4-yl)-2,4,5,6-tetrahydrocyclopenta[c]pyrazol-3-yl)urea]

Further lines, the compound ahead of its results:

SMILES	IC50
CNC(=O)c1ccc(-c2cc(NC(=O)N[C@@H]3CN(CCOC)C[C@H]3c3ccc(F)c(F)c3)n(C)n2)cc1 [Example 163, 4-(5-(3-((3S,4R)-4-(3,4-difluorophenyl)-1-(2-methoxyethyl)pyrrolidin-3-yl)ureido)-1-methyl-1H-pyrazol-3-yl)-N-methylbenzamide]	< 100 nM
COCCN1C[C@@H](NC(=O)Nc2c3c(nn2-c2ccccc2)CN(C(C)=O)C3)[C@H](c2ccccc2)C1 [Example 159, 1-(5-acetyl-2-phenyl-2,4,5,6-tetrahydropyrrolo[3,4-c]pyrazol-3-yl)-3-((3S,4R)-1-(2-methoxyethyl)-4-phenylpyrrolidin-3-yl)urea]	100 to 1000 nM
COCCN1C[C@@H](NC(=O)Nc2c3c(nn2-c2ccccc2)CCC3)[C@H](c2ccncc2)C1 (relative stereo) [Example 38, 1-(trans-1-(2-methoxyethyl)-4-(pyridin-4-yl)pyrrolidin-3-yl)-3-(2-phenyl-2,4,5,6-tetrahydrocyclopenta[c]pyrazol-3-yl)urea]	< 100 nM
COCCN1C[C@@H](NC(=O)Nc2cc(-c3ccc(SC)cc3)nn2C)[C@H](c2ccc(F)c(F)c2)C1 [Example 125, 1-((3S,4R)-4-(3,4-difluorophenyl)-1-(2-methoxyethyl)pyrrolidin-3-yl)-3-(1-methyl-3-(4-(methylthio)phenyl)-1H-pyrazol-5-yl)urea]	< 100 nM
COCCN1C[C@@H](NC(=O)Nc2c3c(nn2-c2ccccc2)CS(=O)(=O)C3)[C@H](c2ccccc2)C1 [Example 172, 1-(5,5-dioxido-2-phenyl-4,6-dihydro-2H-thieno[3,4-c]pyrazol-3-yl)-3-((3S,4R)-1-(2-methoxyethyl)-4-phenylpyrrolidin-3-yl)urea]	< 100 nM
COCCN1C[C@@H](NC(=O)Nc2cc(C(C)(C)C)nn2-c2cccc(C)c2)[C@H](c2ccccc2)C1 (relative stereo) [Example 30, 1-(3-tert-butyl-1-m-tolyl-1H-pyrazol-5-yl)-3-(trans-1-(2-methoxyethyl)-4-phenylpyrrolidin-3-yl)urea]	< 100 nM
COC[C@@H](N1C[C@@H](NC(=O)Nc2c(C)c(OC[C@H](C)O)nn2-c2ccccc2)[C@H](c2ccc(F)c(F)c2)C1)C(F)(F)F [Example 279, 1-((3S,4R)-4-(3,4-difluorophenyl)-1-((R)-1,1,1-trifluoro-3-methoxypropan-2-yl)pyrrolidin-3-yl)-3-(3-((S)-2-hydroxypropoxy)-4-methyl-1-phenyl-1H-pyrazol-5-yl)urea]	100 to 1000 nM
COCCN1C[C@@H](NC(=O)Nc2c(C)c(-c3ccccc3)nn2-c2ccccc2)[C@H](c2cc(F)c(F)c(F)c2)C1 [Example 330, 1-((3S,4R)-4-(3,4,5-trifluorophenyl)-1-(2-methoxyethyl)pyrrolidin-3-yl)-3-(4-methyl-1,3-diphenyl-1H-pyrazol-5-yl)urea]	< 100 nM
COCCOc1nn(-c2ccccc2)c(NC(=O)N[C@@H]2CN(CCOC)C[C@H]2c2ccc(F)c(F)c2)c1C [Example 137, 1-((3S,4R)-4-(3,4-difluorophenyl)-1-(2-methoxyethyl)pyrrolidin-3-yl)-3-(3-(2-methoxy-ethoxy)-4-methyl-1-phenyl-1H-pyrazol-5-yl)urea]	< 100 nM
COCCN1C[C@@H](NC(=O)Nc2c(OC)c(C)nn2-c2ccccc2)[C@H](c2ccc(F)c(F)c2)C1 [Example 131, 1-((3S,4R)-4-(3,4-difluorophenyl)-1-(2-methoxyethyl)pyrrolidin-3-yl)-3-(4-methoxy-3-methyl-1-phenyl-1H-pyrazol-5-yl)urea]	< 100 nM
COCCN1C[C@@H](NC(=O)Nc2c(-c3ccccc3)c(OC)nn2C)[C@H](c2ccc(F)c(F)c2)C1 [Example 156, 1-((3S,4R)-4-(3,4-difluorophenyl)-1-(2-methoxyethyl)pyrrolidin-3-yl)-3-(3-methoxy-1-methyl-4-phenyl-1H-pyrazol-5-yl)urea]	< 100 nM
CCOC(=O)c1cnn(-c2ccccc2)c1NC(=O)N[C@@H]1CN(CCOC)C[C@H]1c1ccc(F)c(F)c1 [Example 154, ethyl 5-(3-((3S,4R)-4-(3,4-difluorophenyl)-1-(2-methoxyethyl)pyrrolidin-3-yl)ureido)-1-phenyl-1H-pyrazole-4-carboxylate]	1000 to 10000 nM
COCCN1C[C@@H](NC(=O)Nc2c(C)c(OC[C@@H](C)O)nn2-c2ccccc2)[C@H](c2ccc(F)cc2)C1 [Example 364, 1-((3S,4R)-4-(4-fluorophenyl)-1-(2-methoxyethyl)pyrrolidin-3-yl)-3-(3-((R)-2-hydroxypropoxy)-4-methyl-1-phenyl-1H-pyrazol-5-yl)urea]	< 100 nM
